Data taken from publication PMC8448819, “The Arabidopsis MIK2 receptor elicits immunity by sensing a conserved signature from phytocytokines and microbes” (Nature Communications, 2021).
Values joined by “and” are separate entries in the source; they are usually repeats but may differ in a detail not shown here. Identical values can stand only once. “Also recorded” adds a separate entry of the source. Like-named read-outs stand apart in the source and are kept apart here. No end group written: not given here.

How the values were obtained:
Assay type in all cases: in vivo, Arabidopsis thaliana
[1] = system: mik2-1 and mik2-2 mutant seedlings; conditions: for Root length (Fig. 3e): individual values, one per line; for root growth inhibition in mik2: mik2-1 and mik2-2, 10-day-old seedlings, 1 µM peptide
[2] = system: Arabidopsis WT seedlings; test: ROS assay (luminol), WT seedlings; conditions: WT seedlings
Protocol: ROS burst was determined by a luminol-based assay. […] Then, ddH2O was replaced by 200 µL of reaction solution containing 50 µM of luminol, and 10 µg/mL of horseradish peroxidase (Sigma-Aldrich) supplemented with or without 100 nM or 1 μM peptide. Luminescence was measured immediately after adding the solution with a luminometer (Glomax 20/20n, Promega) with a one-second interval for 15 min. The total values of ROS production were indicated as means of the relative light units (RLUs).

[3] = system: Arabidopsis WT (Col-0) seedlings; conditions: in vivo
[4] = system: WRKY30, WRKY33 and CYP81F2 expression, WT seedlings; test: RT-qPCR of defense genes, WT
[5] = system: WRKY30, WRKY33 and CYP81F2 expression, mik2 seedlings; test: RT-qPCR of defense genes, mik2 mutants
[6] = system: MYB51 promoter, pMYB51::GUS seedling roots; test: Histochemical GUS staining, pMYB51::GUS; conditions: pMYB51::GUS seedlings, 1 µM, 3 h
Description: Stained samples were fixed with a 3:1 ethanol:acetic acid solution overnight and cleared by lactic acid and photographed with the Olympus SZX10 stereoscopic microscope equipped with DP27 camera.

[7] = system: MPK3, MPK4 and MPK6 phosphorylation, WT seedlings; test: MAPK assay (α-pERK1/2 immunoblot), WT; conditions: Supplementary Fig. 3i
Protocol: Ten-day-old seedlings grown vertically on ½MS plates were transferred to ddH2O overnight for recovery. Then, ddH2O was replaced by 100 nM peptides for the indicated time.

[8] = system: p35S::Aequorin seedlings; conditions: Ca^2+ and ROS bursts, 100 nM
[9] = system: Arabidopsis WT seedling roots; test: Microscopy of root browning and root meristems, WT

GAPIVFTPPSSSCGGSP [STMP4, STMP4 peptide, which has an amino acid deletion in the conserved SxS motif]
Root length (Fig. 3e) ([1]; mik2-1): 26.035 and 22.177 and 25.221 and 21.231 and 23.232 and 25.379 and 25.816 and 25.603 and 24.49
Root length (Fig. 3e) ([1]; mik2-2): 27.261 and 26.645 and 24.381 and 25.81 and 23.327 and 24.383 and 26.715 and 24.68 and 25.536 and 24.727

KIAVGGSDSVRAHSK [SCOOP23, synthesized SCOOP peptide corresponding to the SxS motif]
ROS production, total luminescence (Fig. 2h) ([2]; repeat 1): 2180098
ROS production, total luminescence (Fig. 2h) ([2]; repeat 2): 1251437
ROS production, total luminescence (Fig. 2h) ([2]; repeat 3): 1771537
root growth inhibition [3]: inhibited root growth to various degrees
Root length (Fig. 3e) ([1]; mik2-1): 23.435 and 26.217 and 25.329 and 21.432 and 22.769 and 26.981 and 22.432 and 24.659 and 23.767 and 23.209
Root length (Fig. 3e) ([1]; mik2-2): 23.086 and 28.297 and 24.517 and 23.273 and 27.734 and 25.385 and 23.518 and 22.015 and 26.958 and 26.866 and 23.718

KIGASGSNSGRAPSC [SCOOP20, synthesized SCOOP peptide corresponding to the SxS motif]
ROS production, total luminescence (Fig. 2h) ([2]; repeat 1): 5262077
ROS production, total luminescence (Fig. 2h) ([2]; repeat 2): 3306520
ROS production, total luminescence (Fig. 2h) ([2]; repeat 3): 2873103
root growth inhibition [3]: inhibited root growth to various degrees
Root length (Fig. 3e) ([1]; mik2-1): 24.471 and 25.145 and 23.922 and 25.251 and 22.928 and 25.223 and 20.452 and 22.037 and 23.256 and 20.819
Root length (Fig. 3e) ([1]; mik2-2): 26.727 and 24.181 and 24.271 and 27.062 and 26.494 and 25.973 and 25.806 and 29.152 and 24.029 and 26.34 and 22.997

MGSGASGPVRSSQSSQAGGR [SCOOP12]
WRKY30, WRKY33 and CYP81F2 expression ([4]; 1 µM, 1 h, RT-qPCR): upregulation
CYP81F2 expression (Fig. 3i) ([4]; repeat 1): 29.17
CYP81F2 expression (Fig. 3i) ([4]; repeat 2): 38.18
CYP81F2 expression (Fig. 3i) ([4]; repeat 3): 74.97
CYP81F2 expression (Fig. 3i) ([4]; repeat 4): 101.98
CYP81F2 expression (Fig. 3i) ([5]; mik2-1, repeat 1): 5.42
CYP81F2 expression (Fig. 3i) ([5]; mik2-1, repeat 2): 5.95
CYP81F2 expression (Fig. 3i) ([5]; mik2-1, repeat 3): 2.79
CYP81F2 expression (Fig. 3i) ([5]; mik2-1, repeat 4): 3.39
CYP81F2 expression (Fig. 3i) ([5]; mik2-2, repeat 1): 6.08
CYP81F2 expression (Fig. 3i) ([5]; mik2-2, repeat 2): 9.84
CYP81F2 expression (Fig. 3i) ([5]; mik2-2, repeat 3): 9.95
CYP81F2 expression (Fig. 3i) ([5]; mik2-2, repeat 4): 12.98
WRKY30, WRKY33 and CYP81F2 expression ([5]; mik2 mutants, 1 µM, 1 h, RT-qPCR): abolished in mik2 mutants

MISEARPSKSKKGGGR [SCOOP6B, synthesized SCOOP peptide corresponding to the SxS motif]
root growth inhibition [3]: inhibited root growth to various degrees
Root length (Fig. 3e) ([1]; mik2-1): 26.764 and 22.587 and 22.234 and 24.018 and 23.886 and 24.716 and 22.804 and 23.685 and 23.478 and 25.619
Root length (Fig. 3e) ([1]; mik2-2): 24.299 and 28.027 and 25.995 and 25.387 and 24.265 and 26.073 and 27.219 and 21.779 and 25.474 and 24.644

PPRGPGGSGSGHGGGR [AtSCOOPL, SCOOPL from Acidovorax temperans]
root growth inhibition [3]: inactivity
MYB51 promoter activity in roots [6]: inactivity

PPRGSGGPGGSGHGGGG [AaSCOOPL, SCOOPL from Acidovorax avenae]
root growth inhibition [3]: inactivity
MYB51 promoter activity in roots [6]: inactivity

PPRGSGGSGSGHGGGR [VeSCOOPL, SCOOPL from Verminephrobacter eiseniae]
root growth inhibition [3]: induced growth inhibition
MYB51 promoter activity in roots [6]: MYB51 promoter activation in roots
root growth inhibition in mik2 [1]: blocked in mik2-1

PPRGSGGSSSGHGGGR [CuSCOOPL, SCOOPL from a strain of Curvibacter sp]
root growth inhibition [3]: induced growth inhibition
MYB51 promoter activity in roots [6]: MYB51 promoter activation in roots
root growth inhibition in mik2 [1]: blocked in mik2-1

RGIVKPPIASFHSASPKDKGP [SCOOP4, synthesized SCOOP peptide corresponding to the SxS motif]
root growth inhibition [3]: inhibited root growth to various degrees
Root length (Fig. 3e) ([1]; mik2-1): 22.155 and 26.016 and 23.373 and 23.51 and 24.985 and 25.73 and 26.362 and 20.719 and 23.733 and 21.154
Root length (Fig. 3e) ([1]; mik2-2): 26.627 and 26.926 and 29.205 and 26.909 and 23.654 and 24.824 and 23.191 and 25.56 and 22.857 and 22.903 and 27.736

RPPTPRVAVHSNSTKGKGP [SCOOP15B, synthesized SCOOP peptide corresponding to the SxS motif]
root growth inhibition [3]: inhibited root growth to various degrees
Root length (Fig. 3e) ([1]; mik2-1): 22.469 and 26.152 and 25.889 and 25.356 and 27.954 and 26.487 and 24.47 and 23.738
Root length (Fig. 3e) ([1]; mik2-2): 21.779 and 26.908 and 23.024 and 23.497 and 28.191 and 26.08 and 24.094 and 28.257 and 26.467 and 23.539 and 26.537

RSMAPPIFVPPSTSHKGQGP [SCOOP14, synthesized SCOOP peptide corresponding to the SxS motif]
MAPK activation in shoots and roots [7]: triggered the MAPK activation in both shoots and roots
ROS production, total luminescence (Fig. 2h) ([2]; repeat 1): 719851
ROS production, total luminescence (Fig. 2h) ([2]; repeat 2): 1351126
ROS production, total luminescence (Fig. 2h) ([2]; repeat 3): 841586
root growth inhibition [3]: inhibited root growth to various degrees; also recorded: potent in inhibiting root growth
ROS production, SCOOP13 and 14 relative to other SCOOPs, and Ca^2+ bursts [8]: relatively weak activities for Ca^2+ and ROS bursts
MYB51 promoter activity in roots [6]: induced the promoter activities of MYB51
root browning ([9]; WT seedlings, prolonged treatment): led to brown roots
root meristem distortion ([9]; WT, 5-day-old seedlings, 1 µM, 48 h, PI staining): distorted root meristems
Root length (Fig. 3e) ([1]; mik2-1): 24.089 and 21.232 and 24.336 and 25.505 and 25.175 and 27.845 and 26.169 and 23.827 and 21.884 and 25.844
Root length (Fig. 3e) ([1]; mik2-2): 25.38 and 24.419 and 26.016 and 27.911 and 26.615 and 21.291 and 24.947 and 21.905 and 24.43 and 24.226

SNIDFEGSISGQAGGG [SCOOP8, synthesized SCOOP peptide corresponding to the SxS motif]
root growth inhibition [3]: inhibited root growth to various degrees
Root length (Fig. 3e) ([1]; mik2-1): 25.253 and 25.162 and 23.049 and 22.582 and 26.011 and 22.381 and 28.631 and 26.512 and 24.502 and 27.853
Root length (Fig. 3e) ([1]; mik2-2): 23.975 and 28.387 and 29.648 and 23.838 and 24.549 and 26.123 and 23.426 and 24.732 and 24.595 and 29.804 and 26.398
